Legend:
[1] = test system: neuronal progenitor cells in the SVZ and the dentate gyrus; experiment: Proliferation of neuronal progenitor cells (BrdU immunoreactive cell density) in non ischemic adult rats; type: in vivo, rat
Description: Two experiments were performed. In the first experiment, the effects of NO on the proliferation of neuronal progenitor cells in the SVZ and the dentate gyrus of non ischemic adult rats were examined. In the second experiment, the effects of NO on the proliferation of neuronal progenitor cells in the SVZ and in the dentate gyrus of ischemic adult rats were examined.
Male Wistar rats (n=28) weighing 300-350 g were anesthetized with halothane (1-3.5% in a mixture of 70% N2O and 30% O2) using a face mask. The rectal temperature was maintained at 37±1° C. throughout the surgical procedure using a feedback regulated water heating system. The right femoral artery and vein were cannulated with a PE-50 catheter for continuous monitoring of blood pressure and measurement of blood gases (pH, pO2, pCO2) and for drug administration, respectively. DETANONOate was intravenously and intraperitoneally injected to rats.
DETANONO treatment: Rats were randomly divided into four groups. Group 1 (single Rx), rats were intravenously injected with four consecutive bolus doses of DETANONO (0.1 mg/kg each) every fifteen minutes (total dose of 0.4 mg/kg). Group 2 (two Rx group), rats were intravenously injected with four consecutive bolus doses of DETANONO (0.1 mg/kg each) every fifteen minutes (total dose 0.4 mg/kg) and rats received a second treatment at 24 hours later. Group 3 (seven Rx group), rats received four consecutive intravenous bolus doses of DETANONO (0.1 mg/kg each) every fifteen minutes on the first experimental day and rats were intraperitoneally injected with a bolus dose of DETANONO (0.4 mg/kg) daily for an additional six consecutive days. Group 4 (control), rats received saline only (single dose).
Rats received an intraperitoneal injection of BrdU (50 mg/kg) on the first day of DETANONO treatment and daily intraperitoneal injections of BrdU for fourteen consecutive days. To determine whether the proliferation and the differentiation of cells in the SVZ and dentate gyrus of adult rats is affected by NO, rats were sacrificed at fourteen days (n=3-5 per group) and 42 days (n=3-5 per group) after first dose of DETANONO treatment, respectively. Rats were transcardially perfused with 4% paraformaldehyde in 100 mM phosphate buffer, pH 7.4. Brains were removed and fixed in 4% formaldehyde.
For BrdU immunostaining, DNA was first denatured by incubating brain sections (6 μm) in 50% formamide 2×SSC at 65° C. for 2 hours and then in 2N HCl at 37° C. for 30 minutes. Sections were then rinsed with Tris buffer and treated with 1% of H2O2 to block endogenous peroxidase. Sections were incubated with a primary antibody to BrdU (1:100) at room temperature for one hour and then incubated with biotinylated secondary antibody (1:200, Vector, Burlingame, Calif.) for one hour. Reaction product was detected using 3′3′-diaminobenzidine-tetrahydrochloride (DAB, Sigma).
BrdU immunostained sections were digitized under 40× objectively (Olympus BX40) via the MCID computer imaging analysis system (Imaging Research, St. Catharines, Canada). BrdU immunoreactive nuclei were counted on a computer monitor to improve visualization and in one focal plane to avoid over-sampling. Structures were sampled either by selecting predetermined areas on each section (RMS and OB) or by analyzing entire structures on each section (dentate gyrus and SVZ).
Every 40th coronal section was selected from each rat for a total of seven sections between AP+10.6 mm, genu corpus callosum, and AP+8.74 mm-anterior commissure crossing (Paxinos and Watson, 1986). BrdU immunoreactive-positive nuclei were counted in the lateral ventricle wall. All BrdU immunoreactive-positive nuclei in these areas are presented as the number of the BrdU immunoreactive cells/mm^2. Density for the seven sections was averaged to obtain a mean density value for each animal.
Every 20th section was selected from each rat for a total of six sections from the sagittal series of the OB/frontal cortex. […]

ischemic rats (stroke) = experiment: Battery of neurological functional tests (NSS, Rotarod, footfault, adhesive removal, body weight) after stroke; type: in vivo, rat
Description: Administration of nitric oxide donor compound (DETA/NO) to normal and ischemic rats promotes neurogenesis in non-ischemic and ischemic brains. Since then, additional experiments have been performed to test the hypothesis that neurogenesis induced by DETA/NO promotes functional improvement after stroke; the data is provided herewith. Animals were administered (iv/ip) DETA/NO at one day (Group 1) or seven days (Group 2) after induction of stroke and followed by daily injection (ip) of DETA/NO over a period of seven days. Another NO donor compound (SNAP) was administered (iv) to ischemic rats at one day and two days after stroke (Group 3). Young (3 month old) rats were used in Groups 1 and 2. Middle aged rats (10 to 12 months old) were used in Group 3. A battery of neurological functional tests were measured from two days to forty-two days after stroke. These tests included 1) Neurological severity score (NSS) which measures motor, sensory and reflex functions and is similar to the contralateral neglect testing described in humans. The higher the score, the more severe the injury; 2) Rotarod test measures fore and hindlimb motor coordination and balance. Data are presented as percentage of baseline values; 3) Footfault test measures fore and hindlimb motor coordination. The higher the number, the more severe the injury; 4) Adhesive removal test measures sensorimotor impairments. Data are presented as time (seconds). The longer the time period, the more severe the injury; 5) Animal body weight.

## NCCN(CCN)/[N+]([O-])=N/O [DETANONO, DETANONOate]
[1]; ONCE, 4 weeks after last BrdU injection (42 d), Contralateral
  Density of newborn cells, Olfactory bulb: 80 ± 12.3 cells per mm^2
[1]; ONCE, 4 weeks after last BrdU injection (42 d), Ipsilateral
  Density of newborn cells, Olfactory bulb: 75.65 ± 10.85 cells per mm^2
[1]; ONCE, 4 weeks after last BrdU injection, Left side
  Density of newborn cells, Rostral migratory stream: 26.25 ± 6.9 cells per mm^2
[1]; ONCE, 4 weeks after last BrdU injection, Right side
  Density of newborn cells, Rostral migratory stream: 22.5 ± 5.95 cells per mm^2
[1]; ONCE, 1 day after last BrdU injection (14 d), Contralateral
  Density of newborn cells, Olfactory bulb: 39.75 ± 6.2 cells per mm^2
[1]; ONCE, 1 day after last BrdU injection (14 d), Ipsilateral
  Density of newborn cells, Olfactory bulb: 41.4 ± 5.55 cells per mm^2
[1]; ONCE, 1 day after last BrdU injection (14 d), Left side
  Density of newborn cells, Rostral migratory stream: 998.55 ± 59.7 cells per mm^2
[1]; ONCE, 1 day after last BrdU injection (14 d), Right side
  Density of newborn cells, Rostral migratory stream: 950.25 ± 99.55 cells per mm^2
[1]; TWICE, 4 weeks after last BrdU injection (42 d), Contralateral
  Density of newborn cells, Olfactory bulb: 98.4 ± 19.95 cells per mm^2
[1]; TWICE, 4 weeks after last BrdU injection (42 d), Ipsilateral
  Density of newborn cells, Olfactory bulb: 85 ± 15.95 cells per mm^2
[1]; TWICE, 4 weeks after last BrdU injection, Left side
  Density of newborn cells, Rostral migratory stream: 37.8 ± 5.15 cells per mm^2
[1]; TWICE, 4 weeks after last BrdU injection, Right side
  Density of newborn cells, Rostral migratory stream: 32.9 ± 8.15 cells per mm^2
[1]; TWICE, 1 day after last BrdU injection (14 d), Contralateral
  Density of newborn cells, Olfactory bulb: 99.6 ± 10.5 cells per mm^2
[1]; TWICE, 1 day after last BrdU injection (14 d), Ipsilateral
  Density of newborn cells, Olfactory bulb: 91.65 ± 12.35 cells per mm^2
[1]; TWICE, 1 day after last BrdU injection (14 d), Left side
  Density of newborn cells, Rostral migratory stream: 1070.85 ± 160.1 cells per mm^2
[1]; TWICE, 1 day after last BrdU injection (14 d), Right side
  Density of newborn cells, Rostral migratory stream: 991 ± 98.25 cells per mm^2
[1]; non ischemic rats, 42 days after a single set, fourteen and 42 days after two and seven sets, vs control
  BrdU immunoreactive cells in OB: significant increases
[1]; non ischemic rats, fourteen days after treatment
  number of BrdU immunoreactive cells in the SVZ, seven doses vs one and two doses: highest number of BrdU immunoreactive cells
[1]; non ischemic rats, fourteen days and 42 days after treatment
  numbers of BrdU immunoreactive cells in the RMS: did not significantly increase
[1]; non ischemic rats, fourteen days and 42 days, vs control
  percentage of distribution of BrdU immunoreactive cells in the dentate gyrus: significantly decreases percentage of BrdU immunoreactive cells in subgranular zone and significantly increases in the granule layers
[1]; non ischemic rats, single treatment, fourteen days and 42 days
  numbers of BrdU immunoreactive cells in the dentate gyrus: did not significantly increase
[1]; non ischemic rats, two and seven sets, fourteen days and 42 days, vs control
  numbers of BrdU immunoreactive cells in the dentate gyrus: significant (p<0.01) increases
[1]; non ischemic rats, vs saline at fourteen days and 42 days after treatment
  numbers of BrdU immunoreactive cells in the SVZ: significant (p<0.05) increase
[1]; × 7 TIMES, 4 weeks after last BrdU injection (42 d), Contralateral
  Density of newborn cells, Olfactory bulb: 100.65 ± 19 cells per mm^2
[1]; × 7 TIMES, 4 weeks after last BrdU injection (42 d), Ipsilateral
  Density of newborn cells, Olfactory bulb: 84.4 ± 7.1 cells per mm^2
[1]; × 7 TIMES, 4 weeks after last BrdU injection, Left side
  Density of newborn cells, Rostral migratory stream: 47.5 ± 15.6 cells per mm^2
[1]; × 7 TIMES, 4 weeks after last BrdU injection, Right side
  Density of newborn cells, Rostral migratory stream: 45 ± 11.35 cells per mm^2
[1]; × 7 TIMES, 1 day after last BrdU injection (14 d), Contralateral
  Density of newborn cells, Olfactory bulb: 116.55 ± 16.45 cells per mm^2
[1]; × 7 TIMES, 1 day after last BrdU injection (14 d), Ipsilateral
  Density of newborn cells, Olfactory bulb: 106.25 ± 17.7 cells per mm^2
[1]; × 7 TIMES, 1 day after last BrdU injection (14 d), Left side
  Density of newborn cells, Rostral migratory stream: 1312.5 ± 265 cells per mm^2
[1]; × 7 TIMES, 1 day after last BrdU injection (14 d), Right side
  Density of newborn cells, Rostral migratory stream: 1169.4 ± 218.85 cells per mm^2
Ischemic rats (stroke); Group 1: from one day after stroke, daily ip over seven days, vs control
  animal body weight: Significant improvements
Ischemic rats (stroke); Group 1: from one day after stroke, daily ip over seven days, young rats, vs control
  motor and sensorimotor functions (Rotarod, Adhesive Removal, NSS tests): Significant improvements
Ischemic rats (stroke); Group 2: from seven days after stroke, at 28 and 42 days after stroke, only this test
  neurological function, Rotarod test: significant improvement
